{"source": "patent US20060251704A1", "about": "“Methods and devices for efficacious treatment of aphthous ulcers” (priority 2005, published 2006)", "origin": "cited, not measured here", "system": "aphthous ulcers (RAS)", "conditions": "by the 6th day", "data": [{"smiles": "CC(C)c1ccc2oc3nc(N)c(C(=O)O)cc3c(=O)c2c1", "note": "[amlexanox]", "values": [{"measurement": "patients with healed ulcers", "setting": "vehicle control 54.7%", "value": 65.6, "unit": "%"}, {"measurement": "patients pain free", "setting": "patients with RAS, control group 72.8%", "value": 82.8, "unit": "%"}]}]}
